Where “and” joins values, the source holds several entries; their conditions need not be identical. Equal entries are not always repeated.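 Growth conditions: 96-well plates. Treatment: test compound, 48 hours, 5 concentrations. Analysis: linear interpolation between bracketing concentrations; unreached endpoints set to highest concentration. GI50 marks 50% less growth. TGI: total growth inhibition.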
Tests used:
Assay in all cases: DTP human tumour cell line panel, 48 h
ACHN renal = system: ACHN renal
MOLT-4 leukemia = system: MOLT-4 leukemia
MALME-3M melanoma = system: MALME-3M melanoma
A498 renal = system: A498 renal
PC-3 prostate = system: PC-3 prostate
NCI-H226 lung = system: NCI-H226 lung
EKVX NSCLC = system: EKVX NSCLC
MDA-MB-231 breast = system: MDA-MB-231 breast
TK-10 renal = system: TK-10 renal
SF-539 CNS = system: SF-539 CNS

Compound | GI50 (ACHN renal) | TGI (ACHN renal) | GI50 (MOLT-4 leukemia) | TGI (MOLT-4 leukemia) | GI50 (MALME-3M melanoma) | TGI (MALME-3M melanoma) [µM] | GI50 (A498 renal) | TGI (A498 renal) | GI50 (PC-3 prostate) | TGI (PC-3 prostate) | GI50 (NCI-H226 lung) | TGI (NCI-H226 lung) | GI50 (EKVX NSCLC) | TGI (EKVX NSCLC) [µM] | GI50 (MDA-MB-231 breast) [µM] | TGI (MDA-MB-231 breast) | GI50 (TK-10 renal) | TGI (TK-10 renal) | GI50 (SF-539 CNS) | TGI (SF-539 CNS)
COc1cc(/C=C\[N+](=O)[O-])ccc1O | 2.36 µM | 6.01 µM | 2.76 µM | 7.23 µM | 1.91 µM | 4.91 | 12.3 µM | 24.8 µM | 8.63 µM | 21.6 µM | 4.34 µM | 16.6 µM | 11.8 µM | 24.6 | 2.6 | 8.94 µM | 1.72 µM | 3.41 µM | 2.03 µM | 5.18 µM
O=c1cc(-c2cccc(F)c2)[nH]c2cc3c(cc12)OCO3 | 0.432 µM | 75 µM and > 59.5 µM | 0.799 µM | 75 µM and > 16.8 µM | – | > 72 | – | > 9.41 µM | – | > 89.5 µM | 0.951 µM and 0.0963 µM | 9.77 µM and 1.49 µM | – | > 100 | – | 1.03 µM | 4.71 µM | 75 µM and 44 µM | 0.133 µM | 0.301 µM and 0.247 µM
CC(CO)(CO)N=Cc1cc(I)cc(I)c1O | – | 69.9 µM | – | 47.5 µM | – | 28.5 | – | 65.4 µM | – | 32.1 µM | – | 34.7 µM | – | 54.2 | – | 38.7 µM | – | 84.2 µM | – | 31.3 µM
COc1ccc(C(=O)Nc2ncc(Cc3ccc(Cl)cc3)s2)cc1 | 0.0603 µM | > 100 µM | 0.064 µM | > 100 µM | 0.087 µM | > 100 | 0.0216 µM | 0.0848 µM | 0.0528 µM | > 100 µM | 0.0771 µM | > 64.3 µM | 0.26 µM | > 100 | 0.176 | 47.3 µM | 3.94 µM | > 100 µM | 0.047 µM | 0.516 µM
CC(=O)Nc1cccc(-n2c(=O)n(C3CC3)c(=O)c3c(Nc4ccc(I)cc4F)n(C)c(=O)c(C)c32)c1 | 0.49 µM and 0.291 µM | > 79.5 µM | 6.96 µM and > 9.64 µM | > 100 µM | < 0.01 µM and 0.00164 µM | < 0.01 | < 0.01 µM and 0.00596 µM | < 0.0306 µM and 0.0672 µM | 6.33 µM and > 10 µM | 46.3 µM and > 10 µM | 4.37 µM and > 4.88 µM | 47.8 µM and > 10 µM | 0.0135 µM and 0.0443 µM | > 71 | 0.0345 | 14 µM and > 10 µM | < 0.0144 µM and 0.00977 µM | 20.7 µM and > 10 µM | 1.15 µM and > 3.69 µM | 22.1 µM and > 10 µM
NC(CO)Cc1cnc[nH]1 (centres undefined) | > 100 µM | > 100 µM | > 100 µM | > 100 µM | > 100 µM | > 100 | > 100 µM | > 100 µM | > 100 µM | > 100 µM | > 100 µM | > 100 µM | > 100 µM | > 100 | – | > 100 µM | > 100 µM | > 100 µM | > 100 µM | > 100 µM
COc1cc(C(=O)NC2c3ccccc3-c3ccccc32)c(N)cc1OCc1ccccc1 | 23 µM | > 92.3 µM | > 78.4 µM | > 100 µM | 26.6 µM | > 76.6 | 37 µM | > 100 µM | 27.5 µM | > 66.1 µM | 11.4 µM | 44.3 µM | 5.28 µM | 45 | 17.2 | 47.1 µM | 26.2 µM | 69.6 µM | 11.8 µM | 28.3 µM
Cc1cc([C@@H](C)Nc2ccccc2C(=O)O)c2nc(N3CCOCC3)cc(=O)n2c1 | > 10 µM | > 10 µM | 5.42 µM | > 10 µM | > 10 µM | > 10 | 0.0166 µM | 0.0945 µM | 3.73 µM | > 10 µM | > 10 µM | > 10 µM | > 10 µM | > 10 | > 10 | > 10 µM | > 10 µM | > 10 µM | 7.11 µM | > 10 µM
Nc1n[nH]c2ccc([C@@H]3Nc4ccc5[nH]ncc5c4[C@H]4[C@H]5CCC(C5)[C@H]43)cc12 | 0.895 µM | > 72 µM | 0.407 µM | > 51.3 µM | 0.461 µM | > 47.5 | 0.168 µM | 0.641 µM | 0.397 µM | 23 µM | 0.331 µM | 2.88 µM | 0.606 µM | > 100 | 0.688 | 18.5 µM | 8.25 µM | > 79.5 µM | 0.238 µM | 0.673 µM
COc1ccc(NC(=O)Nc2n[nH]c3ccccc23)cc1 | > 100 µM | > 100 µM | > 100 µM | > 100 µM | > 100 µM | > 100 | > 100 µM | > 100 µM | > 100 µM | > 100 µM | > 100 µM | > 100 µM | > 100 µM | > 100 | > 100 | > 100 µM | > 100 µM | > 100 µM | > 100 µM | > 100 µM
COc1cc2ncn(-c3cc(OCc4ccccc4Cl)c(C(N)=O)s3)c2cc1OC | 1.58 µM | > 25 µM | 0.118 µM | > 25 µM | > 25 µM | > 25 | 0.117 µM | 3.21 µM | 1 µM | > 25 µM | 0.801 µM | > 25 µM | 1.25 µM | > 25 | 0.247 | 8.13 µM | 3.04 µM | > 22 µM | 0.249 µM | 4.31 µM
C[C@@H]1CC[C@H]2C(COCC3=C(C(F)(F)F)O[C@@H]4O[C@@]5(C)CC[C@H]6[C@H](C)CC[C@@H]3[C@@]46OO5)=C(C(F)(F)F)O[C@@H]3O[C@@]4(C)CC[C@@H]1[C@]32OO4 | 0.028 µM | > 100 µM | < 0.0233 µM | > 100 µM | < 0.01 µM | > 100 | 32.7 µM | > 100 µM | < 0.01 µM | > 100 µM | 0.047 µM | > 100 µM | 0.0333 µM | > 100 | 0.037 | > 100 µM | 0.143 µM | > 100 µM | < 0.01 µM | > 100 µM
O=C1/C(=C/c2ccc(F)cc2)CCOc2ccc([N+](=O)[O-])cc21 | 28 µM | 65.4 µM | 2.49 µM | 6.02 µM | 2.27 µM | 5.79 | 17.4 µM | 35 µM | 0.306 µM | 1.64 µM | 20.1 µM | 39.6 µM | 16.5 µM | 30.5 | 13.3 | 31.9 µM | 3.88 µM | 16.1 µM | 2.52 µM | 5.99 µM
